Data published in US7803769B2 (priority 2006, dated 2010).
Bridge positions count the residues as written; N and C are the ends. Square brackets hold non-standard residues; d marks the D form. Peptide text beside a SMILES is read from it. 1Nal = N[C@@H](Cc1cccc2ccccc12)C(=O)O

Legend:
human Kv1.3 (CHO) = biological target: T1, human Kv1.3 (CHO) (Homo sapiens, UniProt P22001); test: cell-based
T1 construct: expressed in transfected cells

human Kv1.1 (HEK293) = biological target: T2, human Kv1.1 (HEK293) (Homo sapiens, UniProt Q09470); test: cell-based
T2 construct: expressed in transfected cells; host or cells: HEK293
T2 sequence (Q09470 whole entry): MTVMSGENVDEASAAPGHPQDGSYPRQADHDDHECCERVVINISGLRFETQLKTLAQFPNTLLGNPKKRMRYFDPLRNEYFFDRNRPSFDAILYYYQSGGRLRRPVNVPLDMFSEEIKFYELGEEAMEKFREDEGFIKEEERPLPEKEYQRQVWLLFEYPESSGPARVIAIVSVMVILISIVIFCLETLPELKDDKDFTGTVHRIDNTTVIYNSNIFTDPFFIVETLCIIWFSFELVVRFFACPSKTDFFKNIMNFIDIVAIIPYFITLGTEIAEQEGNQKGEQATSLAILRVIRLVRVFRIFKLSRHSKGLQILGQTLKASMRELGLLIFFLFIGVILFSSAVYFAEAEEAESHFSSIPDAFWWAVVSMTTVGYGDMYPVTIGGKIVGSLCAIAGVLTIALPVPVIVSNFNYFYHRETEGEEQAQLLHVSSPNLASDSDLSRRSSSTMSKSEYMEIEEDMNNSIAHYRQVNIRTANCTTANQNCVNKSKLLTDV

T1 sequence (P22001 whole entry): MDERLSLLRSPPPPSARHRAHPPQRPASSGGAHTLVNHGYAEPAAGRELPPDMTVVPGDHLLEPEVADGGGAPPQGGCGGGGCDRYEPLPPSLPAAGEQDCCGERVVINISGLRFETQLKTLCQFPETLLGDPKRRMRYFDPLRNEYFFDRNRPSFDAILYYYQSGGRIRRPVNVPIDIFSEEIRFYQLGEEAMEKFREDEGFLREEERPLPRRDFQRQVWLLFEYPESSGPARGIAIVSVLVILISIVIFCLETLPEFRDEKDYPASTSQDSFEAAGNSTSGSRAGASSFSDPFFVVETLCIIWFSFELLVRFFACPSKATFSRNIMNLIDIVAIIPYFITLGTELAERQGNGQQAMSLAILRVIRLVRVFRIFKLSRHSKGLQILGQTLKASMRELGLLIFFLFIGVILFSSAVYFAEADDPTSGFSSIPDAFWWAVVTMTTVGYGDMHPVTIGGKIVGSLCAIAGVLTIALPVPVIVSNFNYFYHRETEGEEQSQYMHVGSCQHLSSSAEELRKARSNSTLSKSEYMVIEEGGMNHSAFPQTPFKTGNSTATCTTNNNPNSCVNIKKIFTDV

Compound: CC[C@H](C)[C@@H]1NC(=O)[C@H](CCCCN)NC(=O)[C@@H](NC(=O)[C@H](CCCCN)NC(=O)[C@@H](NC(=O)[C@H](CC(N)=O)NC(=O)[C@@H](NC(=O)[C@@H](NC(=O)[C@@H](NC(=O)CN)C(C)C)[C@@H](C)CC)[C@@H](C)CC)C(C)C)CSSC[C@@H]2NC(=O)[C@H](CCCCN)NC(=O)CNC(=O)[C@H](Cc3ccccc3)NC(=O)[C@H](CCCNC(=N)N)NC(=O)[C@H](CCSC)NC(=O)CNC(=O)[C@H](C)NC(=O)[C@H](CCCCN)NC(=O)[C@H](CCCCN)NC(=O)[C@@H]3CSSC[C@@H](C(=O)N[C@H](C(=O)N4CCC[C@H]4C(=O)N[C@@H](CCCCN)C(=O)O)[C@@H](C)O)NC(=O)[C@H](Cc4c[nH]cn4)NC(=O)[C@H](CSSC[C@H](NC(=O)[C@H](Cc4cccc5ccccc45)NC(=O)[C@H](CCCNC(=N)N)NC(=O)[C@H](CO)NC1=O)C(=O)N[C@@H](CC(C)C)C(=O)N[C@@H](CCC(=O)O)C(=O)N1CCC[C@H]1C(=O)N3)NC(=O)[C@H](CCCCN)NC(=O)CNC(=O)[C@H](CC(N)=O)NC(=O)[C@H](CCSC)NC2=O [Q13Nal] (H-GVIINVKCKISR[1Nal]CLEPCKKAGMRFGKCMNGKCHCTPK-OH; disulfide 8-28, 14-33, 18-35)
- IC50 (human Kv1.3 (CHO)): 0.0134 nM
- IC50 (human Kv1.1 (HEK293)): < 0.00152 nM

Compound: CC[C@H](C)[C@@H]1NC(=O)[C@H](CCCCN)NC(=O)[C@@H](NC(=O)[C@H](CCCCN)NC(=O)[C@@H](NC(=O)[C@H](CC(N)=O)NC(=O)[C@@H](NC(=O)[C@H](Cc2cccc3ccccc23)NC(=O)[C@@H](NC(=O)CN)C(C)C)[C@@H](C)CC)C(C)C)CSSC[C@@H]2NC(=O)[C@H](CCCCN)NC(=O)CNC(=O)[C@H](Cc3ccccc3)NC(=O)[C@H](CCCNC(=N)N)NC(=O)[C@H](CCSC)NC(=O)CNC(=O)[C@H](C)NC(=O)[C@H](CCCCN)NC(=O)[C@H](CCCCN)NC(=O)[C@@H]3CSSC[C@@H](C(=O)N[C@H](C(=O)N4CCC[C@H]4C(=O)N[C@@H](CCCCN)C(=O)O)[C@@H](C)O)NC(=O)[C@H](Cc4c[nH]cn4)NC(=O)[C@H](CSSC[C@H](NC(=O)[C@H](CCC(N)=O)NC(=O)[C@H](CCCNC(=N)N)NC(=O)[C@H](CO)NC1=O)C(=O)N[C@@H](CC(C)C)C(=O)N[C@@H](CCC(=O)O)C(=O)N1CCC[C@H]1C(=O)N3)NC(=O)[C@H](CCCCN)NC(=O)CNC(=O)[C@H](CC(N)=O)NC(=O)[C@H](CCSC)NC2=O [I3Nal] (H-GV[1Nal]INVKCKISRQCLEPCKKAGMRFGKCMNGKCHCTPK-OH; disulfide 8-28, 14-33, 18-35)
- IC50 (human Kv1.3 (CHO)): 0.0103 nM
- IC50 (human Kv1.1 (HEK293)): 0.00234 nM

Compound: CC[C@H](C)[C@@H]1NC(=O)[C@H](CCCCN)NC(=O)[C@@H](NC(=O)[C@H](CCCCN)NC(=O)[C@H](Cc2cccc3ccccc23)NC(=O)[C@H](CC(N)=O)NC(=O)[C@@H](NC(=O)[C@@H](NC(=O)[C@@H](NC(=O)CN)C(C)C)[C@@H](C)CC)[C@@H](C)CC)CSSC[C@@H]2NC(=O)[C@H](CCCCN)NC(=O)CNC(=O)[C@H](Cc3ccccc3)NC(=O)[C@H](CCCNC(=N)N)NC(=O)[C@H](CCSC)NC(=O)CNC(=O)[C@H](C)NC(=O)[C@H](CCCCN)NC(=O)[C@H](CCCCN)NC(=O)[C@@H]3CSSC[C@@H](C(=O)N[C@H](C(=O)N4CCC[C@H]4C(=O)N[C@@H](CCCCN)C(=O)O)[C@@H](C)O)NC(=O)[C@H](Cc4c[nH]cn4)NC(=O)[C@H](CSSC[C@H](NC(=O)[C@H](CCC(N)=O)NC(=O)[C@H](CCCNC(=N)N)NC(=O)[C@H](CO)NC1=O)C(=O)N[C@@H](CC(C)C)C(=O)N[C@@H](CCC(=O)O)C(=O)N1CCC[C@H]1C(=O)N3)NC(=O)[C@H](CCCCN)NC(=O)CNC(=O)[C@H](CC(N)=O)NC(=O)[C@H](CCSC)NC2=O [V6Nal] (H-GVIIN[1Nal]KCKISRQCLEPCKKAGMRFGKCMNGKCHCTPK-OH; disulfide 8-28, 14-33, 18-35)
- IC50 (human Kv1.3 (CHO)): 0.021 nM
- IC50 (human Kv1.1 (HEK293)): < 0.00152 nM

Compound: CC[C@H](C)[C@H](NC(=O)[C@H](C)NC(=O)CN)C(=O)N[C@H](C(=O)N[C@@H](CC(N)=O)C(=O)N[C@H](C(=O)N[C@@H](CCCCN)C(=O)N[C@H]1CSSC[C@@H]2NC(=O)[C@H](CCCCN)NC(=O)CNC(=O)[C@H](Cc3ccccc3)NC(=O)[C@H](CCCNC(=N)N)NC(=O)[C@H](CCSC)NC(=O)CNC(=O)[C@H](C)NC(=O)[C@H](CCCCN)NC(=O)[C@H](CCCCN)NC(=O)[C@@H]3CSSC[C@@H](C(=O)N[C@H](C(=O)N4CCC[C@H]4C(=O)N[C@@H](CCCCN)C(=O)O)[C@@H](C)O)NC(=O)[C@H](Cc4c[nH]cn4)NC(=O)[C@H](CSSC[C@H](NC(=O)[C@H](CCC(N)=O)NC(=O)[C@H](CCCNC(=N)N)NC(=O)[C@H](CO)NC(=O)[C@H]([C@@H](C)CC)NC(=O)[C@H](CCCCN)NC1=O)C(=O)N[C@@H](CC(C)C)C(=O)N[C@@H](CCC(=O)O)C(=O)N1CCC[C@H]1C(=O)N3)NC(=O)[C@H](CCCCN)NC(=O)CNC(=O)[C@H](CC(N)=O)NC(=O)[C@H](CCSC)NC2=O)C(C)C)[C@@H](C)CC [V2A] (H-GAIINVKCKISRQCLEPCKKAGMRFGKCMNGKCHCTPK-OH; disulfide 8-28, 14-33, 18-35)
- IC50 (human Kv1.3 (CHO)): 0.0818 nM
- IC50 (human Kv1.1 (HEK293)): 0.00994 nM

Compound: CC[C@H](C)[C@@H]1NC(=O)[C@H](CCCCN)NC(=O)[C@@H](NC(=O)[C@H](CCCCN)NC(=O)[C@@H](NC(=O)[C@H](CC(N)=O)NC(=O)[C@@H](NC(=O)[C@@H](NC(=O)[C@@H](NC(=O)CN)C(C)C)[C@@H](C)CC)[C@@H](C)CC)C(C)C)CSSC[C@@H]2NC(=O)[C@H](CCCCN)NC(=O)CNC(=O)[C@H](Cc3ccccc3)NC(=O)[C@H](CCCNC(=N)N)NC(=O)[C@H](CCSC)NC(=O)CNC(=O)[C@H](C)NC(=O)[C@H](CCCCN)NC(=O)[C@H](CCCCN)NC(=O)[C@@H]3CSSC[C@@H](C(=O)N[C@H](C(=O)N4CCC[C@H]4C(=O)N[C@@H](CCCCN)C(=O)O)[C@@H](C)O)NC(=O)[C@H](Cc4c[nH]cn4)NC(=O)[C@H](CSSC[C@H](NC(=O)[C@H](CCC(N)=O)NC(=O)[C@H](CCCNC(=N)N)NC(=O)[C@H](CO)NC1=O)C(=O)N[C@@H](CC(C)C)C(=O)N[C@@H](CCC(=O)O)C(=O)N1CCC[C@H]1C(=O)N3)NC(=O)[C@H](CCCCN)NC(=O)CNC(=O)[C@H](CC(N)=O)NC(=O)[C@H](Cc1cccc3ccccc13)NC2=O [M29Nal] (H-GVIINVKCKISRQCLEPCKKAGMRFGKC[1Nal]NGKCHCTPK-OH; disulfide 8-28, 14-33, 18-35)
- IC50 (human Kv1.3 (CHO)): 0.0935 nM
- IC50 (human Kv1.1 (HEK293)): 0.0469 nM

Compound: CC[C@H](C)[C@@H]1NC(=O)[C@H](CCCCN)NC(=O)[C@@H](NC(=O)[C@H](CCCCN)NC(=O)[C@@H](NC(=O)[C@H](CC(N)=O)NC(=O)[C@@H](NC(=O)[C@@H](NC(=O)[C@@H](NC(=O)CN)C(C)C)[C@@H](C)CC)[C@@H](C)CC)C(C)C)CSSC[C@@H]2NC(=O)[C@H](CCCCN)NC(=O)CNC(=O)[C@H](Cc3ccccc3)NC(=O)[C@H](CCCNC(=N)N)NC(=O)[C@H](Cc3cccc4ccccc34)NC(=O)CNC(=O)[C@H](C)NC(=O)[C@H](CCCCN)NC(=O)[C@H](CCCCN)NC(=O)[C@@H]3CSSC[C@@H](C(=O)N[C@H](C(=O)N4CCC[C@H]4C(=O)N[C@@H](CCCCN)C(=O)O)[C@@H](C)O)NC(=O)[C@H](Cc4c[nH]cn4)NC(=O)[C@H](CSSC[C@H](NC(=O)[C@H](CCC(N)=O)NC(=O)[C@H](CCCNC(=N)N)NC(=O)[C@H](CO)NC1=O)C(=O)N[C@@H](CC(C)C)C(=O)N[C@@H](CCC(=O)O)C(=O)N1CCC[C@H]1C(=O)N3)NC(=O)[C@H](CCCCN)NC(=O)CNC(=O)[C@H](CC(N)=O)NC(=O)[C@H](CCSC)NC2=O [M23Nal] (H-GVIINVKCKISRQCLEPCKKAG[1Nal]RFGKCMNGKCHCTPK-OH; disulfide 8-28, 14-33, 18-35)
- IC50 (human Kv1.3 (CHO)): 0.036 nM
- IC50 (human Kv1.1 (HEK293)): 0.0644 nM

Compound: CC[C@H](C)[C@@H]1NC(=O)[C@H](CCCCN)NC(=O)[C@@H](NC(=O)[C@H](CCCCN)NC(=O)[C@@H](NC(=O)[C@H](CC(N)=O)NC(=O)[C@@H](NC(=O)[C@@H](NC(=O)[C@@H](NC(=O)CN)C(C)C)[C@@H](C)CC)[C@@H](C)CC)C(C)C)CSSC[C@@H]2NC(=O)[C@H](CCCCN)NC(=O)CNC(=O)[C@H](Cc3ccccc3)NC(=O)[C@H](CCCNC(=N)N)NC(=O)[C@H](CCSC)NC(=O)[C@H](Cc3cccc4ccccc34)NC(=O)[C@H](C)NC(=O)[C@H](CCCCN)NC(=O)[C@H](CCCCN)NC(=O)[C@@H]3CSSC[C@@H](C(=O)N[C@H](C(=O)N4CCC[C@H]4C(=O)N[C@@H](CCCCN)C(=O)O)[C@@H](C)O)NC(=O)[C@H](Cc4c[nH]cn4)NC(=O)[C@H](CSSC[C@H](NC(=O)[C@H](CCC(N)=O)NC(=O)[C@H](CCCNC(=N)N)NC(=O)[C@H](CO)NC1=O)C(=O)N[C@@H](CC(C)C)C(=O)N[C@@H](CCC(=O)O)C(=O)N1CCC[C@H]1C(=O)N3)NC(=O)[C@H](CCCCN)NC(=O)CNC(=O)[C@H](CC(N)=O)NC(=O)[C@H](CCSC)NC2=O [G22Nal] (H-GVIINVKCKISRQCLEPCKKA[1Nal]MRFGKCMNGKCHCTPK-OH; disulfide 8-28, 14-33, 18-35)
- IC50 (human Kv1.3 (CHO)): > 3.33 nM
- IC50 (human Kv1.1 (HEK293)): 0.426 nM

Compound: CC[C@H](C)[C@@H]1NC(=O)[C@H](CCCCN)NC(=O)[C@@H](NC(=O)[C@H](CCCCN)NC(=O)[C@@H](NC(=O)[C@H](CC(N)=O)NC(=O)[C@@H](NC(=O)[C@@H](NC(=O)[C@H](Cc2cccc3ccccc23)NC(=O)CN)[C@@H](C)CC)[C@@H](C)CC)C(C)C)CSSC[C@@H]2NC(=O)[C@H](CCCCN)NC(=O)CNC(=O)[C@H](Cc3ccccc3)NC(=O)[C@H](CCCNC(=N)N)NC(=O)[C@H](CCSC)NC(=O)CNC(=O)[C@H](C)NC(=O)[C@H](CCCCN)NC(=O)[C@H](CCCCN)NC(=O)[C@@H]3CSSC[C@@H](C(=O)N[C@H](C(=O)N4CCC[C@H]4C(=O)N[C@@H](CCCCN)C(=O)O)[C@@H](C)O)NC(=O)[C@H](Cc4c[nH]cn4)NC(=O)[C@H](CSSC[C@H](NC(=O)[C@H](CCC(N)=O)NC(=O)[C@H](CCCNC(=N)N)NC(=O)[C@H](CO)NC1=O)C(=O)N[C@@H](CC(C)C)C(=O)N[C@@H](CCC(=O)O)C(=O)N1CCC[C@H]1C(=O)N3)NC(=O)[C@H](CCCCN)NC(=O)CNC(=O)[C@H](CC(N)=O)NC(=O)[C@H](CCSC)NC2=O [V2Nal] (H-G[1Nal]IINVKCKISRQCLEPCKKAGMRFGKCMNGKCHCTPK-OH; disulfide 8-28, 14-33, 18-35)
- IC50 (human Kv1.3 (CHO)): 0.0116 nM
- IC50 (human Kv1.1 (HEK293)): 0.00246 nM
